Patent publication US4971995A, “Alkyl or benzyl phenol ethers, their preparation and their therapeutic uses” (Delande S.A., priority 1988, dated 1990)
Like-named read-outs stand apart in the source and are kept apart here.

Tests used:
[1] = molecular target: T1, form A of monoamine oxydase (Rattus norvegicus, UniProt P21396); assay: in vitro inhibition of monoamine oxydase form A (homogenized rat brain, (14C) serotonine substrate); assay type: biochemical, rat (male Sprague-Dawley, entire brain); conditions: rat brain homogenate
T1 construct: monoamine oxydase in rat brain tissue; from tissue; host or cells: homogenized entire brain of male Sprague-Dawley rat
T1 sequence (P21396 1-526): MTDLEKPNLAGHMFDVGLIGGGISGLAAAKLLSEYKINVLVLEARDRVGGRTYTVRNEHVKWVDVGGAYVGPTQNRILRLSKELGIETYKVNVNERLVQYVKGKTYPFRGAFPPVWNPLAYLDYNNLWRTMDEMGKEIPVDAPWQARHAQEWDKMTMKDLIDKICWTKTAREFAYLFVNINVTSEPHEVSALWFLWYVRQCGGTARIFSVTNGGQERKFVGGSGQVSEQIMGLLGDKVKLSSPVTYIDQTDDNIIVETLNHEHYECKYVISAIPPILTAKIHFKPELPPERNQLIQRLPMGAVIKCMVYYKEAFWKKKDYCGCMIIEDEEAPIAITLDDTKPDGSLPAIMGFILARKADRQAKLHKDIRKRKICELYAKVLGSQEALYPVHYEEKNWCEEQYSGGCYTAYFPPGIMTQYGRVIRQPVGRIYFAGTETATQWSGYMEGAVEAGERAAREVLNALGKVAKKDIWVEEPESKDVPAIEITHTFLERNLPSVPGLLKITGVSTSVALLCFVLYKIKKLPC
Method: Pharmacol., 1983, 35, 161-165.
(§1) Inhibition constants KIA and KIB on forms A and B of mono-
(§2) amine oxydase (homogenized entire brain of a male rate
(§3) (Sprague-Dawley): 1 g of tissue to 16 ml of phosphate
(§4) The inhibition constants were calculated from the formula: KI =
CI50 /l + [S]/Km taking [S] = 48 μM for (^14 C)
serotonine and Km = 100 μM, or [S] = 12 μM for (^14 C)
phenylethylamine and Km = 6 μM
(§5) as the selective substrates for forms A and B respectively of monoamine oxydase.

[2] = molecular target: T2, form B of monoamine oxydase (Rattus norvegicus, UniProt P19643); assay: in vitro inhibition of monoamine oxydase form B (homogenized rat brain, (14C) phenylethylamine substrate); assay type: biochemical, rat (male Sprague-Dawley, entire brain); conditions: for Ki: rat brain homogenate, pH 7.4, (14C) phenylethylamine; for KIA /KIB, after 20 min pre-incubation / KIA /KIB, no pre-incubation: selectivity ratio form A / form B
T2 construct: monoamine oxydase in rat brain tissue; from tissue; host or cells: homogenized entire brain of male Sprague-Dawley rat
T2 sequence (P19643 1-520): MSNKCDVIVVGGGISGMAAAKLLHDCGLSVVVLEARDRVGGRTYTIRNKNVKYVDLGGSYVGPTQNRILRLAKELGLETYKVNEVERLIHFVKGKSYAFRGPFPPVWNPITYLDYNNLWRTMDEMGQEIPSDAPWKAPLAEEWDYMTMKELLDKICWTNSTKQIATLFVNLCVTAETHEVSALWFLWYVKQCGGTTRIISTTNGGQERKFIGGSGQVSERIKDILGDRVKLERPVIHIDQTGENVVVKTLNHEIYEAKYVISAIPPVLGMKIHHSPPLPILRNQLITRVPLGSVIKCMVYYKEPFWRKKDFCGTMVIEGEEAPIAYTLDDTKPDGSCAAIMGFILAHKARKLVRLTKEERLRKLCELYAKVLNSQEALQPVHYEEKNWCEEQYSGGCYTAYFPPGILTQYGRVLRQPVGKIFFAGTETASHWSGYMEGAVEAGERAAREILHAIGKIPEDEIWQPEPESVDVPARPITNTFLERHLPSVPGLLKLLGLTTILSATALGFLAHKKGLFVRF
Method: as §1, §2, §3, §4, §5

[3] = after 20 min pre-incubation, pH 7.4, read-out: Inhibition constant KIA, after 20 min pre-incubation
[4] = no pre-incubation, pH 7.4, read-out: Inhibition constant KIA, no pre-incubation
[5] = after 20 min pre-incubation, read-out: Inhibition constant KIB, after 20 min pre-incubation
[6] = no pre-incubation, read-out: Inhibition constant KIB, no pre-incubation

Ki [1, 3] [nM]	Ki [1, 4] [nM]	Ki [2, 5] [nM]	Ki [2, 6] [nM]	KIA /KIB, after 20 min pre-incubation ([2]; after 20 min pre-incubation)	KIA /KIB, no pre-incubation ([2]; no pre-incubation)	Structure (SMILES)
> 1720	> 1720	570	403	> 3	> 4	COCC(COc1ccc(OCc2cccc(Cl)c2)cc1)OC (racemic) [compound 200210]
	> 5170		543		> 9.5	COC(CO)COc1ccc(OCc2cccc(Cl)c2)cc1 (racemic) [compound 200213, [(chloro-3 phenylmethyloxy)-4 phenoxy]-3 methoxy-2 propanol-1 (±)]
5430		79		69		COCCCC(O)c1ccc(OCc2cccc(Cl)c2)cc1 (racemic) [compound 280190, [(chloro-3 phenylmethyloxy)-4 phenyl]-1 methoxy-4 butanol-1 (±)]
	> 1720		232		> 7	OCCCCc1ccc(OCc2cccc(Cl)c2)cc1 [compound 200123]
1650						COC[C@H](O)COc1ccc(OCc2cccc(Cl)c2)cc1 [compound 280040, [(chloro-3 phenylmethyloxy)-4 phenoxy]-1 methoxy-3 propanol-2 S (+)]
